According to patent US10941157B2, “Pesticidal compositions and uses thereof” (Gilead Apollo, LLC, priority 2015, dated 2021):
Values after ≈ are worked out from the molar mass of the structure shown.

Columns and labels:
Type in all cases: cell-based
[1] = system: Fusarium virguliforme (Fv); assay: In vitro pathogen growth inhibition assay, Fv; conditions: ≥90% inhibition, 48 hours vs 2% DMSO control, read-out: Compound Concentration (ppm) sufficient for ≥90% inhibition of growth, Fv
Method: (§1) A growth inhibition assay was conducted to determine the ability of compounds to control the growth of fungal pathogens, such as Botrtyis cinerea (Bc), Collectotrichum graminicola (Cg), Diplodia maydis (Dm), Fusarium moniliforme (Fm), Fusarium virguliforme (Fv), Phytophthora capsici (Pc), Rhizoctonia solani (Rs), and Septoria tritici (St). The compounds listed in Table 1 were each dissolved in DMSO at 2.5 mg/ml to produce compound stock solutions (“stocks”). […] Negative controls on each plate included 2% DMSO, water, and a blank (media+2% DMSO). Fungal spores were isolated from previously sub-cultured plates of Botrtyis cinerea (Bc), Collectotrichum graminicola (Cg), Diplodia maydis (Dm), Fusarium moniliforme (Fm), Fusarium virguliforme (Fv), Phytophthora capsici (Pc), and Septoria tritici (St). The isolated spores were diluted to individual concentrations with a 17% V8 liquid media. For Rhizoctonia solani (Rs), 1.5 mm mycelial plugs were used in place of spores and ¼ Potato Dextrose Broth (PDB) was used for dilution. The spore concentrations and plug sizes were based on growth curves generated at 48 hours for each pathogen. In a second 96-well plate, the spores or mycelial plugs, media, diluted compound solutions, and controls were combined. Once the compound was added, a true final concentration of compound in each well was measured by an OD600 reading, which adjusted for any compound precipitation that might have occurred in the well. Plate readings were repeated at both 24 and 48 hours. The blank negative control was used as a background subtraction. Additional visual ratings were performed at both 24 and 48 hours for checking on precipitation and confirming efficacy. […] Both tables list the concentration of each compound that was sufficient to ≥90% inhibition of growth for each of the fungal pathogens listed above. In addition, some of compounds were tested in a yeast growth inhibition assay for Saccharomyces cerevisiae (Sc). Table 2 lists the concentration of the tested compound that was sufficient to ≥75% inhibition of Saccharomyces cerevisiae (Sc).

Diplodia maydis (Dm) = assay: In vitro pathogen growth inhibition assay, Dm; conditions: Stenocarpella maydis, 48 h, ≥90% inhibition; 48 hours vs 2% DMSO control; read-out: Compound Concentration (ppm) sufficient for ≥90% inhibition of growth, Dm
Method: as §1

[2] = system: Collectotrichum graminicola (Cg); assay: In vitro pathogen growth inhibition assay, Cg; conditions: 48 h, ≥90% inhibition; 48 hours vs 2% DMSO control; read-out: Compound Concentration (ppm) sufficient for ≥90% inhibition of growth, Cg
Method: as §1

Rhizoctonia solani (Rs) = assay: In vitro pathogen growth inhibition assay, Rs (mycelial plugs); conditions: Rhizoctonia solani, 48 h, ≥90% inhibition; mycelial plugs; 48 hours vs 2% DMSO control; read-out: Compound Concentration (ppm) sufficient for ≥90% inhibition of growth, Rs
Method: as §1

[3] = system: Fusarium moniliforme (Fm); assay: In vitro pathogen growth inhibition assay, Fm; conditions: Fusarium verticillioides; ≥90% inhibition; 48 hours vs 2% DMSO control; read-out: Compound Concentration (ppm) sufficient for ≥90% inhibition of growth, Fm
Method: as §1

Septoria tritici (St) = assay: In vitro pathogen growth inhibition assay, St; conditions: Zymoseptoria tritici, 48 h, ≥90% inhibition; 48 hours vs 2% DMSO control; read-out: Compound Concentration (ppm) sufficient for ≥90% inhibition of growth, St
Method: as §1

Botrtyis cinerea (Bc) = assay: In vitro pathogen growth inhibition assay, Bc; conditions: 48 h, ≥90% inhibition; 48 hours vs 2% DMSO control; read-out: Compound Concentration (ppm) sufficient for ≥90% inhibition of growth, Bc
Method: as §1

[4] = system: Phytophthora capsici (Pc); assay: In vitro pathogen growth inhibition assay, Pc; conditions: 48 h, ≥90% inhibition, 48 hours vs 2% DMSO control, read-out: Compound Concentration (ppm) sufficient for ≥90% inhibition of growth, Pc
Method: as §1

IC90 [1] [µg/mL]	IC90 (Diplodia maydis (Dm)) [µg/mL]	IC90 [2] [µg/mL]	IC90 (Rhizoctonia solani (Rs)) [µg/mL]	IC90 [3] [µg/mL]	IC90 (Septoria tritici (St)) [µg/mL]	IC90 (Botrtyis cinerea (Bc)) [µg/mL]	IC90 [4] [µg/mL]	Structure (SMILES)
0.4 (≈ 0.626 µM)	0.4 (≈ 0.626 µM)	0.4 (≈ 0.626 µM)	0.08 (≈ 0.125 µM)	0.08 (≈ 0.125 µM)	> 50	2 (≈ 3.13 µM)	> 50	COc1ccc(F)cc1[C@H](Cn1c(=O)n(C(C)(C)C(=O)N2CC=CC2)c(=O)c2c(C)c(-n3nccn3)sc21)OC1CCOCC1 [Compound I-075]
0.4 (≈ 0.595 µM)	0.4 (≈ 0.595 µM)	0.4 (≈ 0.595 µM)	0.08 (≈ 0.119 µM)	0.08 (≈ 0.119 µM)	≥ 10	2 (≈ 2.97 µM)	≥ 50	COCCOc1ccc(F)cc1[C@H](Cn1c(=O)n(C(C)(C)C(=O)NC(C)C)c(=O)c2c(C)c(-n3nccn3)sc21)OC1CCOCC1 [Compound I-076]
0.4 (≈ 0.684 µM)	2 (≈ 3.42 µM)	2 (≈ 3.42 µM)	0.4 (≈ 0.684 µM)	0.08 (≈ 0.137 µM)	> 50	2 (≈ 3.42 µM)	> 50	C=CCO[C@@H](Cn1c(=O)n(C(C)(C)C(=O)NC(C)C)c(=O)c2c(C)c(-n3nccn3)sc21)c1cc(F)ccc1OC [Compound I-077]
0.4 (≈ 0.684 µM)	2 (≈ 3.42 µM)	2 (≈ 3.42 µM)	0.4 (≈ 0.684 µM)	0.08 (≈ 0.137 µM)	> 50	2 (≈ 3.42 µM)	> 50	COc1ccc(F)cc1[C@H](Cn1c(=O)n(C(C)(C)C(=O)NC2CC2)c(=O)c2c(C)c(-n3nccn3)sc21)OC(C)C [Compound I-078]
0.4 (≈ 0.638 µM)	2 (≈ 3.19 µM)	2 (≈ 3.19 µM)	0.4 (≈ 0.638 µM)	0.08 (≈ 0.128 µM)	> 50	2 (≈ 3.19 µM)	> 50	C=CCNC(=O)C(C)(C)n1c(=O)c2c(C)c(-n3nccn3)sc2n(C[C@H](OC2CCOCC2)c2cc(F)ccc2OC)c1=O [Compound I-079]
2 (≈ 3.12 µM)	0.4 (≈ 0.624 µM)	0.08 (≈ 0.125 µM)	0.08 (≈ 0.125 µM)	0.08 (≈ 0.125 µM)	> 50	0.4 (≈ 0.624 µM)	> 50	C=CCN(C)C(=O)C(C)(C)n1c(=O)c2c(C)c(-n3nccn3)sc2n(C[C@H](OC2CCOCC2)c2cc(F)ccc2OC)c1=O [Compound I-080]
0.4 (≈ 0.653 µM)	2 (≈ 3.26 µM)	0.4 (≈ 0.653 µM)	0.4 (≈ 0.653 µM)	0.08 (≈ 0.131 µM)	> 50	2 (≈ 3.26 µM)	≥ 50	COc1ccc(F)cc1[C@H](Cn1c(=O)n(C(C)(C)C(=O)N2CC=CC2)c(=O)c2c(C)c(-n3nccn3)sc21)OC[C@@H](C)O [Compound I-081]
0.4 (≈ 0.636 µM)	2 (≈ 3.18 µM)	2 (≈ 3.18 µM)	0.4 (≈ 0.636 µM)	0.08 (≈ 0.127 µM)	≥ 50	2 (≈ 3.18 µM)	> 50	COCCCO[C@@H](Cn1c(=O)n(C(C)(C)C(=O)N2CCCC2)c(=O)c2c(C)c(-n3nccn3)sc21)c1cc(F)ccc1OC [Compound I-083]
0.4 (≈ 0.695 µM)	0.4 (≈ 0.695 µM)	0.4 (≈ 0.695 µM)	0.08 (≈ 0.139 µM)	0.08 (≈ 0.139 µM)	≥ 10	> 0.08	> 50	CCOC(=O)C(C)(C)n1c(=O)c2c(C)c(-n3nccn3)sc2n(C[C@H](OCCO)c2cc(F)ccc2OC)c1=O [Compound I-085]

Further lines, the compound ahead of its results:

Structure (SMILES)	IC90 [1] [µg/mL]	IC90 (Diplodia maydis (Dm)) [µg/mL]	IC90 [2] [µg/mL]	IC90 (Rhizoctonia solani (Rs)) [µg/mL]	IC90 [3] [µg/mL]	IC90 (Septoria tritici (St)) [µg/mL]	IC90 (Botrtyis cinerea (Bc)) [µg/mL]	IC90 [4] [µg/mL]
COc1ccc(F)cc1[C@H](Cn1c(=O)n(CC(=O)NC(C)C)c(=O)c2c(C)c(-n3nccn3)sc21)OC(C)C [Compound I-060]	0.4 (≈ 0.716 µM)	0.4 (≈ 0.716 µM)	> 50	≥ 2	0.08 (≈ 0.143 µM)	> 50	0.4 (≈ 0.716 µM)	> 50
COc1ccc(F)cc1[C@H](Cn1c(=O)n([C@H](C)C(=O)NC(C)C)c(=O)c2c(C)c(-n3nccn3)sc21)OC(C)C [Compound I-061]	0.4 (≈ 0.698 µM)	0.4 (≈ 0.698 µM)	0.08 (≈ 0.14 µM)	0.4 (≈ 0.698 µM)	0.08 (≈ 0.14 µM)	> 50	0.4 (≈ 0.698 µM)	> 50
COc1ccc(F)cc1[C@H](Cn1c(=O)n(C(C)C(=O)N2CCCC2)c(=O)c2c(C)c(-n3cccn3)sc21)OC(C)C (some centres unmarked) [Compound I-062]	0.4 (≈ 0.685 µM)	1.2 (≈ 2.06 µM)	0.4 (≈ 0.685 µM)	2 (≈ 3.43 µM)	0.08 (≈ 0.137 µM)	50 (≈ 85.7 µM)	0.4 (≈ 0.685 µM)	50 (≈ 85.7 µM)
COc1ccc(F)cc1[C@H](Cn1c(=O)n([C@@H](C)C(=O)N2CCCC2)c(=O)c2c(C)c(-n3cccn3)sc21)OC(C)C [Compound I-063]	0.4 (≈ 0.685 µM)	≥ 0.4	0.4 (≈ 0.685 µM)	2 (≈ 3.43 µM)	0.08 (≈ 0.137 µM)	≥ 50	0.4 (≈ 0.685 µM)	> 50
COc1ccc(F)cc1[C@H](Cn1c(=O)n(C(C)(C)C(=O)NC(C)C)c(=O)c2c(C)c(-n3nccn3)sc21)OC[C@@H](C)O [Compound I-065]	0.4 (≈ 0.664 µM)	0.4 (≈ 0.664 µM)	0.4 (≈ 0.664 µM)	≥ 0.08	0.08 (≈ 0.133 µM)	≥ 2	2 (≈ 3.32 µM)	≥ 2
COc1ccc(F)cc1[C@H](Cn1c(=O)n(C(C)(C)C(=O)NC(C)C)c(=O)c2c(C)c(-n3nccn3)sc21)OC[C@H](C)O [Compound I-066]	0.4 (≈ 0.664 µM)	≥ 0.4	≥ 0.4	≥ 0.4	0.08 (≈ 0.133 µM)	≥ 10	≥ 0.4	50 (≈ 83 µM)
COc1ccc(F)cc1[C@H](Cn1c(=O)n(C(C)(C)C(=O)N2CC=CC2)c(=O)c2c(C)c(-n3nccn3)sc21)OC(C)C [Compound I-067]	0.4 (≈ 0.67 µM)	0.08 (≈ 0.134 µM)	0.08 (≈ 0.134 µM)	0.4 (≈ 0.67 µM)	0.08 (≈ 0.134 µM)	≥ 2	0.4 (≈ 0.67 µM)	> 50
COCCOc1ccc(F)cc1[C@H](Cn1c(=O)n(C(C)(C)C(=O)NC(C)C)c(=O)c2c(C)c(-n3nccn3)sc21)OC(C)C [Compound I-068]	0.4 (≈ 0.634 µM)	≥ 0.08	0.4 (≈ 0.634 µM)	0.4 (≈ 0.634 µM)	0.08 (≈ 0.127 µM)	≥ 50	0.4 (≈ 0.634 µM)	> 50
Cc1c(-n2nccn2)sc2c1c(=O)n(C(C)(C)C(=O)NC(C)C)c(=O)n2C[C@H](OC(C)C)c1cc(F)ccc1OCC1COC1 [Compound I-069]	0.4 (≈ 0.622 µM)	0.4 (≈ 0.622 µM)	0.4 (≈ 0.622 µM)	≥ 0.4	0.08 (≈ 0.124 µM)	≥ 50	0.4 (≈ 0.622 µM)	> 50
Cc1c(-n2nccn2)sc2c1c(=O)n(C(C)(C)C(=O)NC(C)C)c(=O)n2C[C@H](OC(C)C)c1cc(F)ccc1OCC#N [Compound I-070]	0.08 (≈ 0.131 µM)	0.4 (≈ 0.654 µM)	2 (≈ 3.27 µM)	2 (≈ 3.27 µM)	0.08 (≈ 0.131 µM)	≥ 10	0.4 (≈ 0.654 µM)	> 50
Cc1c(-n2nccn2)sc2c1c(=O)n(C(C)(C)C(=O)NC(C)C)c(=O)n2C[C@H](OC(C)C)c1cc(F)ccc1OCCO [Compound I-071]	0.4 (≈ 0.649 µM)	0.4 (≈ 0.649 µM)	0.4 (≈ 0.649 µM)	≥ 0.08	0.08 (≈ 0.13 µM)	≥ 50	0.4 (≈ 0.649 µM)	≥ 50
COc1ccc(F)cc1[C@H](Cn1c(=O)n(C(C)(C)C(=O)NC(C)C)c(=O)c2c(C)c(-n3nccn3)sc21)OCC(C)(C)O [Compound I-072]	0.4 (≈ 0.649 µM)	0.4 (≈ 0.649 µM)	≥ 0.08	≥ 0.4	0.08 (≈ 0.13 µM)	≥ 2	2 (≈ 3.24 µM)	10 (≈ 16.2 µM)
COc1ccc(F)cc1[C@H](Cn1c(=O)n(C(C)(C)C(=O)N2CCCC2)c(=O)c2c(C)c(-n3nccn3)sc21)OCC(C)(C)O [Compound I-073]	0.4 (≈ 0.636 µM)	2 (≈ 3.18 µM)	0.4 (≈ 0.636 µM)	≥ 0.4	0.08 (≈ 0.127 µM)	≥ 10	2 (≈ 3.18 µM)	> 50
